Assay results reported in patent US8367723B2, “Selenoquinone-derived active organometallic complexes, methods for synthesizing same, and uses thereof” (Centre National de la Recherche Scientifique—CNRS, priority 2009, dated 2013).
pIC50: −log10 of the molar value.

Key:
[1] = system: A2780cisR (cisplatin-resistant) ovarian cancer cells; assay: MTT cytotoxicity test on A2780cisR (cisplatin-resistant) ovarian cancer cells; assay type: cell-based; settings: A2780cisR (cisplatin-resistant) cell line, 72 hours incubation
Method: (§1) The biological (cytotoxicity) properties of the complexes synthesized above were tested on A2780 and A2780cisR (cisplatin-resistant) ovarian cancer cells according to a conventional procedure described below, and the IC50 values obtained were compared with those obtained under the same conditions with the cisplatin complex Pt (NH3)2Cl2.
(§2) The A2780 and A2780cisR ovarian cancer cell lines were obtained from The European Collection of Cell Cultures (ECACC) (Salisbury, UK). The cells were cultured in RPMI medium comprising glucose, 5% of fetal calf serum (FCS) and antibiotics, at 37° C. and 5% CO2.
(§3) The cytotoxicity was determined using the MTT (3-(4,5-dimethyl-2-thiazolyl)-2,5-diphenyl-2H-tetrazolium bromide) test (MOSMANN, 1983).
(§4) The cells were distributed in 96-well plates, as monolayers, with 100 μl of solution (approximately 20 000 cells) per well, and were preincubated for 24 hours in a medium supplemented with 10% of FCS.
(§5) The compounds were prepared in DMSO solution, were then dissolved in the culture medium and were successively diluted to the appropriate concentration, in order to obtain a final DMSO concentration of 0.5%. 100 μl of solution of these compounds were added to each well and the plates were incubated for 72 hours. Subsequently, MTT (5 mg/ml) was added to the cells and the plates were incubated for 2 hours. The culture medium was removed by suction and the purple formazan crystals formed by the mitochondrial dehydrogenase activity of the living cells were dissolved in DMSO.
(§6) The optical density, which is directly proportional to the number of living cells, was quantified at 540 nm using a multiwell plate reader and the fraction of living cells was quantified from the absorbance of untreated control cells. Evaluation was carried out from two independent experiments, each comprising 3 microcultures per concentration level.

[2] = system: A2780 ovarian cancer cells; assay: MTT cytotoxicity test on A2780 ovarian cancer cells; assay type: cell-based; settings: A2780 ovarian cancer cell line, 72 hours incubation
Method: as §1, §2, §3, §4, §5, §6

Compound	pIC50 [1]	pIC50 [2]
N.N.[Cl][Pt][Cl] [cis-[Pt(NH3)2Cl2], cis-diamminedichloroplatinum(II)]	4.60	5.52
o-[(C5Me5)Ir(η^4-benzoquinone)] [compound 3]		< 3.40
o-[(C5Me5)Ir(η^4-dithiobenzoquinone)] [compound 5]		4.31
o-[(C5Me5)Rh(η^4-benzoquinone)] [compound 1]		< 3.40
p-[(C5Me5)Ir(η^4-2,5-dimethyldiselenobenzoquinone)] [compound 10]	5.14	5.21
p-[(C5Me5)Ir(η^4-benzoquinone)] [compound 4]		4.03
p-[(C5Me5)Ir(η^4-diselenobenzoquinone)] [compound 8]		5.30
p-[(C5Me5)Ir(η^4-dithiobenzoquinone)] [compound 6]		3.81
p-[(C5Me5)Ir(η^4-monoselenobenzoquinone)] [compound 9]	5.08	4.91
p-[(C5Me5)Rh(η^4-benzoquinone)] [compound 2]		< 3.40
